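1) Cells in 96-well plates. 2) Compound, 48 h, 5 concentrations. 3) Linear interpolation between surrounding doses. 4) Unreached endpoint = highest concentration. Here, GI50 denotes the concentration required for 50% inhibition of growth.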 Calls of active or inactive are those of the source. Rule as the data show it: active = GI50 up to about 1.1 µM and inactive = higher.
How the values were obtained:
Assay in all cases: DTP human tumour cell line panel, 48 h
[1] = tested on: 786-0
[2] = tested on: A549
[3] = tested on: BT-549
[4] = tested on: HCC 2998
[5] = tested on: KM12
[6] = tested on: LOX IMVI
[7] = tested on: M14
[8] = tested on: MDA-MB-435
[9] = tested on: NCI-H226
[10] = tested on: OVCAR-4
[11] = tested on: RXF 393
[12] = tested on: SF-539
[13] = tested on: SK-MEL-2
[14] = tested on: SK-OV-3
[15] = tested on: SNB-19
[16] = tested on: SNB-75
[17] = tested on: TK-10
[18] = tested on: U-251
[19] = tested on: UACC-62
[20] = tested on: UO-31

Measured: GI50

CC(C)C1CC(CO)(CNc2nc(N)nc(Cl)c2C=O)C1 (stereo not given)
inactive: [1] 31.3 µM | [2] 12.9 µM | [3] 11.4 µM | [4] 1.97 µM | [5] 7.35 µM | [6] 2.04 µM | [7] 1.77 µM | [8] 2.23 µM | [9] 8.95 µM | [10] 4.81 µM | [11] 7.93 µM | [12] 13.7 µM | [13] 1.8 µM | [14] 6.79 µM | [15] 6.04 µM | [16] 7.87 µM | [17] > 66.8 µM | [18] 3.35 µM | [19] 2 µM | [20] 6.27 µM

From ChEMBL document CHEMBL1201862, “PubChem BioAssay data set” (2004)
